Experimental data: patent US8609610B2, “Inhibitors of the trypsin-like site of the proteasome and methods of use thereof” (Trustees of Dartmouth College, priority 2011, dated 2013)
Where two headings read alike, the source gives them in different places.

What was measured:
[1] = tested on: trypsin-like sites (β2) of proteasome in MM cells; experiment: PROTEASOMEGLO assay of proteasome inhibition in MM cells; assay type: cell-based
[2] = target: β2 (trypsin-like site) of proteasome in HEK-293T cells (Homo sapiens, UniProt P49720+Q99436); experiment: Competition assay in living HEK-293T cells with activity-based probe; assay type: cell-based; conditions: 5 μM
Method: (§1) Proteasome inhibition in MM cells was measured with luminogenic substrates using PROTEASOMEGLO assay (Promega). […] An aliquot of culture was pelleted and medium was removed and replaced with PBS. The resulting cell suspension was mixed with luminogenic substrates in the manufacturer-provided lysis/assay buffer. After 3 minutes mixing on an orbital shaker, the plate was incubated in the dark for additional 17 minutes, followed by the measurements of the luminescence, performed in triplicate for each substrate/data point. Data were analyzed as for purified proteasomes. […] Cells (1×10^6 per well of a 6-well plate) were incubated with the inhibitors for 4 hours at 37° C. and this was followed by a 2 hour incubation with 5 μM BODIPY-TMR-epoxomicin. Subsequently, the medium was removed and the cells were washed with PBS and harvested. […] The supernatant was collected and the protein concentration was determined by the Bradford assay, and used to normalize gel loading. The samples were analysed by SDS-PAGE and fluorescent densitometry as described for competition experiment in cell lysates. IC50 values were calculated from three independent experiments using […] PRISM software.
(§2) Human embryonic kidney cells (some 1×10^6) were cultured in 6-well plates in DMEM containing 10% fetal calf serum, 10 units/mL penicillin and 10 μg/mL streptomycin in a 7% CO2 humidified incubator at 37° C. overnight. Part of the medium was taken and to this was added the appropriate inhibitor in DMSO (1 μL of a 1,000× stock solution), after which the medium was added to the cells. The cells were incubated with the inhibitors for 4 hours at 37° C. and this was followed by addition of MV151 (1 μL of a 5 mM stock solution in DMSO) and incubation for 2 hours at 37° C. Next, the medium was removed and the cells were washed with PBS and harvested. […] The supernatant was collected and the protein concentration was determined by the Bradford assay. All samples were normalized to the same protein concentration with lysis buffer.

RPMI-8226 cells = experiment: ALAMAR BLUE cell viability assay; assay type: cell-based; conditions: RPMI-8226 cells
Summary of the method: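 Myeloma lines were grown in RPMI-1640 with 10% FBS; viability of myeloma cells was read by ALAMAR BLUE mitochondrial dye conversion. PBMNC viability used CELL TITER-GLO ATP luminescence. Caspase-3/7 activity in NCI-H929 and MM1.R was measured with the APO-ONE homogeneous assay.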

Cathepsin B, H, L, S = experiment: Cathepsin activity with pan-cathepsin substrate Z-FR-amc; assay type: cell-based; conditions: NCI-H929 cells, 6 hour treatment
Summary of the method: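 Extracts of cytosol-less cells were used throughout. Cathepsins B, H, L and S were assayed with the fluorogenic Z-FR-amc substrate at pH 6.0. Cathepsin D was measured with the SENSOLYTE 520 fluorometric kit.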

β5 proteasome subunit = target: T1, β5 proteasome subunit (Homo sapiens, UniProt P20618+P28074); experiment: Competition assay in HEK-293T cell lysate with MV151; assay type: biochemical; conditions: HEK-293T lysate, 50 μM
T1 construct: Whole cell lysates of HEK-293T or EL-4 cells were made by sonication; endogenous in cells; host or cells: HEK-293T
Summary of the method: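 HEK-293T (13.5 μg protein, human β5) or EL-4 (9 μg protein, mouse β2i) lysates were treated with inhibitors for 1 h at 37 °C, then labelled with 0.5 μM MV151 for 1 h. Residual subunit activity was read as in-gel fluorescence after SDS-PAGE, with loss of the band indicating competition.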

[3] = tested on: myeloma cells U266 and AMO-1; experiment: Cytotoxicity in combination with β5-selective proteasome inhibitors; assay type: cell-based; conditions: PR671A with bortezomib or PR523
[4] = tested on: bortezomib-adapted cell lines AMO-1a and HL-60a; experiment: Combination in bortezomib-adapted cell lines; assay type: cell-based; conditions: in combination with bortezomib or PR523
[5] = tested on: bortezomib-refractory primary myeloma cells from patients; experiment: Combination in bortezomib-refractory primary myeloma cells; assay type: cell-based; conditions: in combination with bortezomib or PR523; primary cells from three patients
[6] = target: caspase-like site of 26S proteasomes (Oryctolagus cuniculus, UniProt A0A5F9DQW2); experiment: Inhibition of purified 26S proteasomes, substrate Ac-nLPnLD-amc; assay type: biochemical, rabbit; conditions: >>30 no inhibition at 30 μM, >30 inhibition between 10 and 50% at 30 μM, read-out: IC50 for sites in 26S proteasomes: Casp-L
caspase-like site of 26S proteasomes, sequence (A0A5F9DQW2 1-212): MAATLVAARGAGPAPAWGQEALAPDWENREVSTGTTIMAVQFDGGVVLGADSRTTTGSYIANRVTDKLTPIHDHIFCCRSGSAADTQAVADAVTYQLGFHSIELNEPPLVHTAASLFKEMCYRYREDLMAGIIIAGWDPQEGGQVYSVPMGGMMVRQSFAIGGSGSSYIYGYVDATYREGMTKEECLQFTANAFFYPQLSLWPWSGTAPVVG

[7] = target: T2, trypsin-like sites (β2) of proteasome in MM cells (Homo sapiens, UniProt Q99436); experiment: PROTEASOMEGLO assay of proteasome inhibition in MM cells; assay type: cell-based; conditions: 6 hours, >>30 no inhibition at 30 μM, >30 inhibition 10-50% at 30 μM, read-out: IC50 for sites: Tr-L
T2 construct: endogenous in cells; host or cells: NCI-H929, RPMI-8226 and other MM cell lines
T2 sequence (Q99436 44-277): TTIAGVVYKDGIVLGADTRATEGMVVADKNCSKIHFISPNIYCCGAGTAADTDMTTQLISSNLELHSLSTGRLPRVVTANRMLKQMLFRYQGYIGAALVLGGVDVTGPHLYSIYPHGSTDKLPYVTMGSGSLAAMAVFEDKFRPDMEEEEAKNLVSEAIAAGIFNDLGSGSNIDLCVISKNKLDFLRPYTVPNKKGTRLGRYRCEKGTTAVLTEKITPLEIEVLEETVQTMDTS

[8] = target: T3, caspase-like sites (β1) of proteasome in MM cells (Homo sapiens, UniProt P28072+Q99436); experiment: as above; assay type: cell-based; conditions: read-out: IC50 for sites: Casp-L, 6 hours, >>30 no inhibition at 30 μM, >30 inhibition 10-50% at 30 μM
T3 sequence (P28072 35-239): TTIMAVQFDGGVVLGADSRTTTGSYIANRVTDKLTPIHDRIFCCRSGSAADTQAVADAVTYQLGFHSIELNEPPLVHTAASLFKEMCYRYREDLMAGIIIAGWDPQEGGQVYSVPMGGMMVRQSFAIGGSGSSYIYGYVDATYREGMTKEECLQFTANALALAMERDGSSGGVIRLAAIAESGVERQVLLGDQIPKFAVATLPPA
T3 sequence (Q99436 44-277): T2 sequence (Q99436 44-277)

[9] = target: β5 (chymotrypsin-like site) of proteasome in HEK-293T cells (Homo sapiens, UniProt P20618+P28074); experiment: Competition assay in living HEK-293T cells with activity-based probe; assay type: cell-based; conditions: concentrations up to 50 μM
Method: as §1, §2

β2 proteasome subunit = target: T4, β2 proteasome subunit (Mus musculus, UniProt P70195+Q9R1P1); experiment: Competition assay in EL-4 cell lysate with MV151; assay type: biochemical; conditions: 0.5 μM
T4 construct: Whole cell lysates of HEK-293T or EL-4 cells were made by sonication; endogenous in cells; host or cells: EL-4
Description: Competitive inhibition of a proteasome active site is reflected by the disappearance of the corresponding band on a gel.

β2i proteasome subunit = target: T5, β2i proteasome subunit (Mus musculus, UniProt O35955+Q9R1P1); experiment: Competition assay in EL-4 cell lysate with MV151; assay type: biochemical; conditions: EL-4 lysate
T5 construct: Whole cell lysates of HEK-293T or EL-4 cells were made by sonication; endogenous in cells; host or cells: EL-4
Method: Whole cell lysates of HEK-293T or EL-4 cells were made by sonication in 3 volumes of lysis buffer containing 50 mM Tris pH 7.5, 1 mM DTT, 5 mM MgCl2, 250 mM sucrose, 2 mM ATP, 0.025% digitonin. Protein concentration was determined by the Bradford assay. Cell lysates (13.5 μg total protein for HEK lysates and 9 μg total protein for EL-4 lysates) were exposed to the inhibitors for 1 hour at 37° C. prior to incubation with MV151 (0.5 μM) or BODIPY-TMR-epoxomicin (0.5 μM) for an additional 1 hour at 37° C. Reaction mixtures were boiled with Laemmli's buffer containing (3-mercaptoethanol for 5 minutes before being resolved by 12.5% SDS-PAGE. In-gel detection of residual proteasome activity was performed in the wet gel slabs directly on the TYPHOON Variable Mode Imager (Amersham Biosciences) using the Cy3/Tamra settings (λex 532 nm, λem 560 nm) to detect MV151, BODIPY-TMR-epoxomicin and Cy2/Fam settings (λex 488 nm, λem 520 nm) to detect compounds 39 and 59.
The inhibition potential of the inhibitors for each of the catalytically active subunits was assessed in competition assays employing extracts of human embryonic kidney cells (HEK-293T) and mouse lymphoma cells (EL-4) in combination with the fluorescent broad spectrum proteasome probe MV151 (Verdoes, et al. (2006) Chem. Biol. 13:1217-1226). […]

[10] = target: chymotrypsin-like activity of yeast 20S proteasome (Saccharomyces cerevisiae, UniProt P23724+P30656); experiment: Yeast 20S core particle activity, substrate Suc-LLVY-amc; conditions: read-out: IC50 for yeast 20S proteasome: Chym-L
Method: Proteasomes were pre-incubated with inhibitors for minutes, and inhibitors were present during activity assays. Fluorescence was measured at λexc=360, λem=460 nm using a Varian Cary Eclipse Fluorescence Spectrophotometer (Agilent Technologies).

Structure (SMILES)	difference in IC50 for trypsin-like activity between NCI-H929 and RPMI-8226 [1]	time to steady-state proteasome inhibition ([1]; RPMI-8226 cells) [h]	inhibition of β2 activity in living cells ([2]; 4 hours)	sensitization to bortezomib (RPMI-8226 cells)	sensitization to carfilzomib (RPMI-8226 cells)	inhibition of cathepsins (Z-FR-amc) (Cathepsin B, H, L, S)	inhibition of β5 in cell lysate (β5 proteasome subunit)	cytotoxicity of combination [3]	effect on bortezomib resistance [4]	effect on bortezomib resistance [5]	IC50 [6] [µM]	IC50 ([7]; NCI-H929 cells) [µM]	IC50 ([7]; RPMI-8226 cells) [µM]	IC50 ([8]; NCI-H929 cells) [µM]	IC50 ([8]; RPMI-8226 cells) [µM]	β2 band in living cells [2]	β5 in living cells [9]	inhibition of β2 in EL-4 lysate (β2 proteasome subunit)	concentration at which inhibition of β2i starts (β2i proteasome subunit) [µM]	IC50 [10] [µM]
CC(C)C[C@H](NC(=O)[C@H](Cc1ccccc1)N=[N+]=[N-])C(=O)N[C@@H](CC(C)C)C(=O)N[C@H](/C=C/S(C)(=O)=O)Cc1ccc(CN)cc1 [Compound 4a, N3Phe-Leu-Leu-Phe (4-CH2NH2) VS]	three-fold	1	inhibiting (almost) all β2 activity	sensitized RPMI-8226 cells to bortezomib	slightly more potent sensitizer to carfilzomib than was NC-022	Partial inhibition of cathepsins	completely blocked β5	synergistic cytotoxicity	overcomes bortezomib resistance	overcomes bortezomib resistance										
Cc1c(O)cccc1C(=O)N[C@H](C(=O)N[C@@H](CO)C(=O)N[C@H](/C=C/S(C)(=O)=O)Cc1ccc(CN)cc1)C(C)C [Compound 48, HMB-Val-Ser-Phe (4-CH2NH2)-VS]	greater than ten-fold					did not cause any inhibition of cathepsins	Only a part of the β5 activity was inhibited				11	0.2	3.2	> 30	> 30	almost disappeared	not affected at all	almost completely blocked	5	19.3
